Results: US5994308A, “Broad spectrum antimicrobial peptides containing a tryptophan triplet and methods of use” (Board of Trustees of Southern Illinois University, priority 1997, dated 1999)
Where a SMILES comes first, the peptide text is derived from it.

Experiments:
Aspergillus fumigatus = assay type: cell-based; settings: 24 h
Description: (§1) The minimum inhibitory concentration (MIC) was determined by growing fungal strains in YG media until the fungi reached logarithmic phase. The cells were diluted in YG medium then placed in a 96-well plate along with a series of 2-fold dilutions of the peptides. The plate was then incubated at 37° C. for 24 hours. Minimum inhibitory growth was defined as the lowest concentration at which there was no fungal growth.

Candida albicans = assay type: cell-based; settings: 24 h
Description: as §1

SMILES	MINIMUM INHIBITORY CONCENTRATION Aspergillus fumigatus (Aspergillus fumigatus) [µg/mL]	MINIMUM INHIBITORY CONCENTRATION Candida albicans (Candida albicans) [µg/mL]
CC(C)C[C@H](NC(=O)[C@H](Cc1ccccc1)NC(=O)[C@@H]1CCCN1C(=O)[C@H](Cc1c[nH]c2ccccc12)NC(=O)[C@H](Cc1c[nH]c2ccccc12)NC(=O)[C@H](Cc1c[nH]c2ccccc12)NC(=O)[C@@H]1CCCN1C(=O)[C@H](Cc1ccccc1)NC(=O)[C@@H](N)CCCNC(=N)N)C(=O)N[C@@H](CCCNC(=N)N)C(=O)O [Peptide 3, RFPWWWPFLR] (H-RFPWWWPFLR-OH)	500	
N[C@@H](Cc1ccccc1)C(=O)N1CCC[C@H]1C(=O)N[C@@H](Cc1c[nH]c2ccccc12)C(=O)N[C@@H](Cc1c[nH]c2ccccc12)C(=O)N[C@@H](Cc1c[nH]c2ccccc12)C(=O)N1CCC[C@H]1C(=O)N[C@@H](Cc1ccccc1)C(=O)O [Peptide 4, FPWWWPF] (H-FPWWWPF-OH)	500	
CC(C)C[C@H](NC(=O)[C@H](Cc1ccccc1)NC(=O)[C@@H]1CCCN1C(=O)[C@H](Cc1c[nH]c2ccccc12)NC(=O)[C@H](Cc1c[nH]c2ccccc12)NC(=O)[C@H](Cc1c[nH]c2ccccc12)NC(=O)[C@@H]1CCCN1C(=O)[C@H](Cc1ccccc1)NC(=O)[C@H](CCCNC(=N)N)NC(=O)[C@H](CCCNC(=N)N)NC(=O)[C@@H](N)C(C)C)C(=O)N[C@@H](CCCNC(=N)N)C(=O)N[C@@H](CCCNC(=N)N)C(=O)O [Peptide 1, VRRFPWWWPFLRR]	250	1000
